Test results: US9113629B2, “4-amino-6-(4-substituted-phenyl)-picolinates and 6-amino-2-(4-substituted-phenyl)-pyrimidine-4-carboxylates and their use as herbicides” (DOW AGROSCIENCES LLC, priority 2013, dated 2015)
Like-named read-outs stand apart in the source and are kept apart here.

What was measured:
[1] = test system: Key Broadleaf Weed and Crop Species; assay: Post-emergent Test II herbicidal activity (Table 5); assay type: in vivo; details: post-emergence, 336 h, 14 days after application; for pest or weed control at 70 g/ha: application rate 70 g ai/ha; for pest or weed control at 140 g/ha: application rate 140 g ai/ha
Procedure, shortened: (§1)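 Test species were raised 7–21 d under greenhouse conditions until reaching the first or second true leaf, sprayed with formulated compound at 187 L/ha, and kept subirrigated to avoid wash-off. Fourteen days later, damage was rated visually on a 0–100% scale against untreated plants.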

[2] = test system: Key Grass and Sedge Weeds as well as Grass Crops; assay: Post-emergent Test II herbicidal activity (Table 6); assay type: in vivo; details: post-emergence, 336 h; for pest or weed control at 70 g/ha: 70 g ai/ha; for pest or weed control at 140 g/ha: 140 g ai/ha
Procedure, shortened: as §1

[3] = ABUTH: velvetleaf (Abutilon theophrasti), read-out: Visual Growth Reduction (%) 14 Days After Application, ABUTH
[4] = AMARE: redroot pigweed (Amaranthus retroflexus), read-out: Visual Growth Reduction (%) 14 Days After Application, AMARE
[5] = BRSNN: oilseed-rape, canola (Brassica napus), read-out: Visual Growth Reduction (%) 14 Days After Application, BRSNN
[6] = CHEAL: lambsquarters (Chenopodium album), read-out: Visual Growth Reduction (%) 14 Days After Application, CHEAL
[7] = EPHHL: wild poinsettia (Euphorbia heterophylla), read-out: Visual Growth Reduction (%) 14 Days After Application, EPHHL
[8] = HELAN: sunflower (Helianthus annuus), read-out: Visual Growth Reduction (%) 14 Days After Application, HELAN
[9] = VIOTR: wild pansy (Viola tricolor), read-out: Visual Growth Reduction (%) 14 Days After Application, VIOTR
[10] = CYPES: yellow nutsedge (Cyperus esculentus), read-out: Visual Growth Reduction (%) 14 Days After Application, CYPES
[11] = DIGSA: crabgrass (Digitaria sanguinalis), read-out: Visual Growth Reduction (%) 14 Days After Application, DIGSA
[12] = ECHCG: barnyardgrass (Echinochloa crus-galli), read-out: Visual Growth Reduction (%) 14 Days After Application, ECHCG
[13] = ORYSA: rice (Oryza sativa), crop, read-out: Visual Growth Reduction (%) 14 Days After Application, ORYSA
[14] = SETFA: giant foxtail (Setaria faberi), read-out: Visual Growth Reduction (%) 14 Days After Application, SETFA
[15] = SORVU: grain sorghum (Sorghum vulgare), read-out: Visual Growth Reduction (%) 14 Days After Application, SORVU
[16] = TRZSS (wheat, Triticum aestivum), crop, read-out: Visual Growth Reduction (%) 14 Days After Application, TRZSS
[17] = ZEAMX: maize, corn (Zea mays), crop, read-out: Visual Growth Reduction (%) 14 Days After Application, ZEAMX

Structure (SMILES): C=Cc1c(C(=O)O)nc(-c2ccc(Cl)c(F)c2)c(F)c1N [Compound 214]
- pest or weed control at 70 g/ha [1, 3]: 95 to 100%
- pest or weed control at 140 g/ha [1, 3]: 95 to 100%
- pest or weed control at 70 g/ha [1, 4]: 95 to 100%
- pest or weed control at 140 g/ha [1, 4]: 95 to 100%
- pest or weed control at 70 g/ha [1, 5]: 95 to 100%
- pest or weed control at 140 g/ha [1, 5]: 95 to 100%
- pest or weed control at 70 g/ha [1, 6]: 95 to 100%
- pest or weed control at 140 g/ha [1, 6]: 95 to 100%
- pest or weed control at 70 g/ha [1, 7]: 95 to 100%
- pest or weed control at 140 g/ha [1, 7]: 95 to 100%
- pest or weed control at 70 g/ha [1, 8]: 95 to 100%
- pest or weed control at 140 g/ha [1, 8]: 95 to 100%
- pest or weed control at 70 g/ha [1, 9]: 75 to 84%
- pest or weed control at 140 g/ha [1, 9]: 75 to 84%
- pest or weed control at 70 g/ha [2, 10]: 95 to 100%
- pest or weed control at 140 g/ha [2, 10]: 95 to 100%
- pest or weed control at 70 g/ha [2, 11]: 0 to 29%
- pest or weed control at 140 g/ha [2, 11]: 0 to 29%
- pest or weed control at 70 g/ha [2, 12]: 95 to 100%
- pest or weed control at 140 g/ha [2, 12]: 95 to 100%
- pest or weed control at 70 g/ha [2, 13]: 0 to 29%
- pest or weed control at 140 g/ha [2, 13]: 45 to 59%
- pest or weed control at 70 g/ha [2, 14]: 0 to 29%
- pest or weed control at 140 g/ha [2, 14]: 30 to 44%
- pest or weed control at 70 g/ha [2, 15]: 75 to 84%
- pest or weed control at 140 g/ha [2, 15]: 85 to 94%
- pest or weed control at 70 g/ha [2, 16]: 0 to 29%
- pest or weed control at 140 g/ha [2, 16]: 0 to 29%
- pest or weed control at 70 g/ha [2, 17]: 85 to 94%
- pest or weed control at 140 g/ha [2, 17]: 85 to 94%
